Experimental data as given in PubChem BioAssay (NCI).
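A five-concentration, 48-hour dose response in 96-well plates underlies each endpoint, interpolated linearly between surrounding concentrations. Abbreviation: GI50, concentration required for 50% inhibition of growth. TGI: concentration producing complete growth inhibition.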

Assays:
Experiment in all cases: NCI anticancer screen, dose series, 48 h
[1] = test system: UACC-257 melanoma
[2] = test system: OVCAR-3 ovarian
[3] = test system: COLO 205 colon
[4] = test system: A498 renal
[5] = test system: HCC-2998 colon
[6] = test system: SF-268 CNS
[7] = test system: LOX IMVI melanoma
[8] = test system: HCT-15 colon
[9] = test system: MOLT-4 leukemia
[10] = test system: CAKI-1 renal

SMILES | TGI [1] [µM] | TGI [2] [µM] | TGI [3] [µM] | TGI [4] [µM] | TGI [5] [µM] | TGI [6] [µM] | TGI [7] [µM] | TGI [8] [µM] | TGI [9] [µM] | TGI [10] [µM] | GI50 [1] [µM] | GI50 [2] [µM] | GI50 [3] [µM] | GI50 [4] [µM] | GI50 [5] [µM] | GI50 [6] [µM] | GI50 [7] [µM] | GI50 [8] [µM] | GI50 [9] [µM] | GI50 [10] [µM]
O=S(=O)(N/N=C/c1ccc(Cl)cc1Cl)c1ccccc1 | > 100 | > 100 | > 100 | > 100 | > 100 | > 100 | > 100 | > 100 | > 100 | > 100 |  |  |  |  |  |  |  |  |  | 
Cn1ncnc1C1c2n[nH]c(=O)c3cc(F)cc(c23)NC1c1ccc(F)cc1 (stereo not given) | > 100 | > 100 | > 100 | > 94.3 | > 100 | > 100 | > 100 | > 100 | > 100 | > 100 | > 100 | > 100 | > 100 | 5 | > 100 | 3.3 | 6.63 | > 100 | 3.25 | 9.37
CN(C)C(=S)SCC(N)=O | > 100 | > 100 | > 100 | > 100 | > 100 | > 100 | > 100 | > 100 | > 100 | > 100 |  |  |  |  |  |  |  |  |  | 
COc1ccc(CN=C(N)N=C(N)N)cc1OC | > 1000 | > 1000 | > 1000 | > 1000 | > 1000 | > 1000 | > 1000 | > 1000 | > 1000 | > 1000 | 448 | 612 | > 1000 | 151 | > 1000 | 472 | > 1000 | > 1000 | > 1000 | > 1000
NS(=O)(=O)c1ccc(N2N=C(c3cccs3)CC2c2ccccc2O)cc1 (stereo not given) | 7.97 | 2.64 | 1.88 | 4.01 | 5.12 | 4.48 | 5.22 | > 33.3 | 16.9 | 8.19 | 1.47 | 0.933 | 0.577 | 0.835 | 1.33 | 1.16 | 1.25 | 1.35 | 1.27 | 1.47
COc1cc2c(cc1OCCCCCn1c3ccccc3c3ccccc31)N=C[C@@H]1CCCN1C2=O | 5.85 | 3.57 | 4.57 | 3.69 | 3.18 | 3.74 | 4.88 | 3.48 | 6.11 | 4.58 | 2.29 | 1.88 | 2.11 | 1.77 | 1.71 | 1.91 | 2.01 | 1.67 | 2.15 | 1.93
CCCCN(CCCC)CCC(O)c1cc2ccc(C(F)(F)F)cc2c2cc(C(F)(F)F)ccc12 (stereo not given) | 5.96 | 7.55 | 3.33 | 5.86 | 4.58 | 18.3 | 3.63 | 7.29 | 6.66 | 9.01 | 2.15 | 2.89 | 1.62 | 2.02 | 2.08 | 4.98 | 1.66 | 2.15 | 2.67 | 2.61
C=C(C)C(=O)O[C@H]1CC2=CC(CC(C)=C[C@H]3OC(=O)C(=C)C13)OC2=O (stereo not given in full) | 96.3 | 70.5 | 29.3 | 76 | > 100 | 68.5 | 53.7 | 25.6 | 40.7 | 34.4 |  |  |  |  |  |  |  |  |  | 
c1ccc(/C(=N\Nc2ccc3ccccc3n2)c2ccccn2)cc1 | 3.48 | 2.49 | 5.08 | 80.4 | 16.7 | 9.87 | 5.61 | 14.8 | 0.69 | 3.95 | 0.33 | 0.291 | 0.407 | 2.92 | 0.904 | 0.743 | 0.457 | 0.417 | 0.252 | 0.0927
O=CN1N=C(c2ccc(Nc3ccnc4cc(Cl)ccc34)cc2)CC1c1ccc(Cl)cc1 (stereo not given) | > 100 | > 100 | > 100 | > 100 | 8.11 | > 100 | > 100 | > 100 | > 100 | > 100 | > 100 | 0.352 | 2.4 | > 100 | 1.61 | 0.847 | 0.599 | 0.58 | 0.529 | 0.409
O=C(NN1C(=O)CSC12CCC(c1ccccc1)CC2)c1[nH]c2ccc(F)cc2c1-c1ccccc1 (stereo not given) | 35.6 | 31.5 | 68.3 | 34.9 | 28.3 | 48.4 | 30.8 | 32.7 | 33.7 | 36.6 | 19.3 | 17.1 | 21.2 | 18.5 | 14.9 | 20 | 17.1 | 16.6 | 12.2 | 17.5
CNC(=O)c1cncc(/C=C/c2c(Cl)cccc2Cl)c1 | > 25 | > 25 | > 25 | > 25 | > 25 | > 25 | > 25 | > 25 | > 25 | > 25 | 24.7 | 20.9 | > 25 | 7.44 | > 25 | 22.7 | > 19.6 | > 22.4 | > 21.9 | 13.6
Cc1cc(Cl)ccc1Nc1nc(C(F)(F)F)ccc1C(=O)Nc1cccc(C(F)(F)F)c1 | 11.6 | 19.1 | 6.13 | 7.43 | 15.7 | 16.6 | 8.55 | 7.35 | 13.3 | 17.8 | 3.2 | 3.52 | 2.52 | 2.79 | 3.3 | 4.22 | 2.79 | 2.56 | 3.04 | 3.61
